The values that follow come from patent US12129265B2, “Therapeutic agents and uses thereof” (Ankh Life Sciences Limited, priority 2020, dated 2024).

Each structure is given as a SMILES string.

Holding throughout (experiment): CellTiter-Glo in vitro cell proliferation assay, Example 8
Type in all cases: cell-based, Human
In general terms: In ATP-based viability assays light output follows the ATP content of the culture.

Assay [1] relates to SiHA cells. Conditions: Cervical - SC, read-out: Mean IC50. The procedure:
(§1) In this Example, in vitro cell proliferation assays were performed using: (1) Human Myeloma tumor cell lines; (2) Human Lymphoma tumor cell lines; (3) Solid Human tumor cell lines; and (4) Parental, Lenalidomide resistant and Bortezomib resistant Jeko-1 Mantle cell Lymphoma tumor cell lines. The compounds tested were three diharmaline compounds, namely the 518B562 (or simply 562), 560, and 561 compounds. In addition, a monoharmaline product designated as 518F014 was also tested. This monoharmaline product had the following structure:
(§2) Each proliferation assay was carried out as follows. The test cells were plated in growth media using a 384-well microtiter plate at 50 μL volume. The cells were incubated for 24 hours at 37° C. in a humidified incubator. After 24 hours of incubation, the test compounds were added to the test wells in DSMO solvent, at concentrations ranging from 0.0075-100 μM. Control wells received equal volumes of DSMO, without compound. Following drugging, the cells were incubated for 72 hours at 37° C. in a humidified incubator. After this exposure, 100 μL of a 1:1 mixture of sterile water and CellTiter-Glo® reagent (Promega) was added to each well. The plates were then incubated for 60 minutes at room temperature, followed by recording the luminescence value of each well using a luminometer as a measure of cell proliferation.

Assay [2] deals with FaDu cells. Conditions: H&N - SC, read-out: Mean IC50. The procedure:
as §1, §2

The subject of assay [3] is KMS-34 cells. The following applies: KMS-34, HMCL-B; read-out: Mean IC50. The procedure:
as §1, §2

Assay [4] relates to H1975 (EGFR mut) cells. Conditions: NSCLC, read-out: Mean IC50. The procedure:
as §1, §2

The test system of assay [5] is KMM-1 cells. Conditions: KMM-1, HMCL-A; read-out: Mean IC50. The procedure: as §1, §2
Assay [6] has as its system OCI-LY3 cells. Conditions: OCI-LY3, ABC-DLBCL; read-out: Mean IC50. The method, then: as §1, §2
For assay [7], the system named is H1650 (EGFR mut) cells. The following applies: NSCLC, read-out: Mean IC50. The procedure: as §1, §2
Assay [8] has as its system MDA-MB-231 cells. Conditions: MDA-MB-231, TNBC; read-out: Mean IC50. The method, then: as §1, §2
The subject of assay [9] is A2780 cells. Conditions: A2780, Ovarian; read-out: Mean IC50. The method, then:
as §1, §2

For assay [10], the system named is MDA-MB-468 cells. The following applies: MDA-MB-468, TNBC; read-out: Mean IC50. The method, then:
as §1, §2

Assay [11] has as its system HCC70 cells. Conditions: HCC70, TNBC; read-out: Mean IC50. The procedure: as §1, §2
For assay [12], the system named is L363 cells. Conditions: L363, PCL/MM; read-out: Mean IC50. The method, then:
as §1, §2

In assay [13] the test system is AN3CA cells. Conditions: Endometrial, read-out: Mean IC50. The method, then: as §1, §2
Assay [14] relates to A498 cells. The following applies: A498, RCC; read-out: Mean IC50. The method, then: as §1, §2
The test system of assay [15] is DOHH-2 cells. Conditions: DoHH-2, GCB-DLBCL; read-out: Mean IC50. The method, then:
as §1, §2

For assay [16], the system named is MOLP-8 cells. Conditions: MOLP-8, MM IgD; read-out: Mean IC50. The method, then:
as §1, §2

Assay [17] concerns BxPC-3 cells. The following applies: BxPC-3, Pancreatic; read-out: Mean IC50. The method, then: as §1, §2
The test system of assay [18] is JIM1 cells. The following applies: JIM1, HMCL; read-out: Mean IC50. The procedure: as §1, §2
For assay [19], the system named is A2780CP cells. The following applies: Ovarian, read-out: Mean IC50. The method, then: as §1, §2
Assay [20] deals with ASPC-1 cells. The following applies: ASPC-1, Pancreatic; read-out: Mean IC50. The procedure:
as §1, §2

In assay [21] the test system is MIA PaCa-2 cells. Conditions: MIA PaCa-2, Pancreatic; read-out: Mean IC50. The procedure:
as §1, §2

For assay [22], the system named is HEC-1a cells. Conditions: Endometrial, read-out: Mean IC50. The method, then: as §1, §2
Assay [23] concerns RPMI-8226 cells. Conditions: RPMI-8226, HMM. The procedure:
as §2
In this example, different cell lines were subjected to in vitro cell proliferation assays as described in Example 8. In particular, the cell lines are identified in the following Table 17, and the tissue types were: Pancreatic; Endometrial; Triple-Negative Breast Cancer (TNBC); Non-Small-Cell Lung Carcinoma (NSCLC); Ovarian; Renal Cell Carcinoma (RCC); Cervical-Squamous Cell; […] (H&N-Squamous Cell); Germinal Center B Cell-Like Novo Diffuse Large B-Cell Lymphoma (GCB-DLBCL); Activated B-Cell—Diffuse Large B Cell Lymphoma (ABC-DLBCL); Human Myeloma; Human Myeloma Cell Line Lymphocyte-Like; Human Myeloma Cell Line Lymphocyte-Like Myeloma Pleural Effusion Infiltration; Human Multiple Myeloma; Plasma Cell Leukemia/Multiple Myeloma Epstein-Barr Nuclear Antigen-Negative (EBNA-Negative) and to Express mRNA for Proto-Oncogene B-Cell Lymphoma 2 (BCL2); Multiple Myeloma from Peripheral Blood Type IgD Lmabda.

For the compound `COc1ccc2c3c([nH]c2c1)C(CC(CC1=NCCc2c1[nH]c1cc(OC)ccc21)c1ccccc1OC)=NCC3` [compound 1], the IC50 in [1] was 9.44 µM; in assay [2] it was 5.36 µM; in assay [3], 4.15 µM; in assay [4] it was 6.54 µM; in [5], 4.2 µM; in [6], 3.42 µM. The IC50 in assay [7] came out at 8.18 µM; in assay [8], 5.72 µM; in assay [9], 5.9 µM; in [10] it was 4.39 µM; in assay [11] it was 8.02 µM; in assay [12], 2.62 µM. The IC50 in assay [13] came out at 2.5 µM; in assay [14], 9.91 µM; in assay [15], 2.25 µM; in assay [16], 1.98 µM; in [17], 4.3 µM; in assay [18] it was 4.51 µM. The IC50 in [19] came to 4.45 µM; in assay [20], 6.44 µM; in assay [21] it was 3.67 µM; in assay [22] it was 9.27 µM; in [23] it was 1.87 µM.
Consider `CCOc1cc(C(CC2=NCCc3c2[nH]c2cc(OC)ccc32)CC2=NCCc3c2[nH]c2cc(OC)ccc32)ccc1O` [compound 2], for which the IC50 was 17.1 µM in assay [1]; 13.5 µM in assay [2]; 9.35 µM in [3]; 19.5 µM in assay [4]; 9.4 µM in [5]; 6.58 µM in [6]. In addition, the IC50 came out at 21.6 µM in assay [7]; 14.3 µM in [8]; 16.9 µM in assay [9]; 9.9 µM in [10]; 21.2 µM in assay [11]; 6.26 µM in assay [12]. Also, the IC50 in assay [13] was determined as 6.72 µM; in assay [14], 16.8 µM; in assay [15] it was 3.66 µM; in assay [16], 5.3 µM; in assay [17], 7.88 µM; in [18], 11.5 µM. In addition, the IC50 in assay [19] was 20.2 µM; in [20] it was 15.2 µM; in assay [21], 7.51 µM; in assay [22], 21.6 µM; in assay [23], 8.51 µM.
Consider `COc1ccc2c3c([nH]c2c1)C(CC(CC1=NCCc2c1[nH]c1cc(OC)ccc21)c1ccc(OC)c(OC)c1)=NCC3` [compound 4], for which the IC50 in [1] amounted to 17.1 µM; in [2] it was 7.69 µM; in [3] it was 4.75 µM; in [4], 14.1 µM; in assay [5], 6.32 µM; in assay [6] it was 5.57 µM. The IC50 in assay [7] amounted to 13.6 µM; in [8] it was 12 µM; in assay [9] it was 11.5 µM; in assay [10] it was 6.27 µM; in [11] it was 11.6 µM; in assay [12], 6.38 µM. Further, the IC50 stood at 5.1 µM in [13]; 12.7 µM in assay [14]; 3.17 µM in assay [15]; 5.03 µM in assay [16]; 6.05 µM in assay [17]; 6.89 µM in [18]. Moreover, the IC50 in [19] stood at 10.8 µM; in assay [20], 11 µM; in assay [21], 4.37 µM; in assay [22], 16.3 µM; in assay [23] it was 4.09 µM.
In the case of `COc1ccc2c3c([nH]c2c1)C(CC(CC1=NCCc2c1[nH]c1cc(OC)ccc21)c1cc(OC)c(O)c([N+](=O)[O-])c1)=NCC3` [compound 5], the IC50 was determined as 36.9 µM in assay [1]; 22.3 µM in assay [2]; 17.4 µM in assay [3]; 28.1 µM in [4]; 20.3 µM in assay [5]; 12.3 µM in assay [6]. Also, the IC50 in assay [7] is 23.4 µM; in assay [8], 23.7 µM; in assay [9], 24.1 µM; in assay [10], 14.7 µM; in assay [11] it was 15.1 µM; in assay [12], 22.2 µM. The IC50 in assay [13] was 11.4 µM; in assay [14], 22.8 µM; in assay [15], 9.31 µM; in assay [16], 14.4 µM; in [17] it was 21.2 µM; in assay [18] it was 17.7 µM. In addition, the IC50 turned out to be 24.6 µM in assay [19]; 15.7 µM in assay [20]; 19.9 µM in [21]; 27 µM in assay [22]; 19.3 µM in [23].
For the compound `C=C(C)C1CC=C(C(CC2=NCCc3c2[nH]c2cc(OC)ccc32)CC2=NCCc3c2[nH]c2cc(OC)ccc32)CC1` (centres unmarked) [compound 28], the IC50 in assay [1] came to 13.3 µM; in [2] it was 5.64 µM; in [3], 4.44 µM; in [5], 6.43 µM; in assay [6], 6.17 µM; in [7], 11.3 µM. In addition, the IC50 stood at 10.1 µM in [8]; 8.43 µM in assay [10]; 11.9 µM in assay [11]; 4.75 µM in assay [12]; 4.49 µM in assay [13]; 16.3 µM in [14]. Also, the IC50 is 2.5 µM in assay [15]; 3.71 µM in assay [16]; 6.58 µM in assay [17]; 8.08 µM in assay [18]; 7.02 µM in assay [19]; 7.22 µM in [20]. Moreover, the IC50 in assay [21] amounted to 4.51 µM; in assay [22] it was 10.6 µM; in assay [23] it was 3.5 µM.
As for `COc1ccc2c3c([nH]c2c1)C(CC(CC1=NCCc2c1[nH]c1cc(OC)ccc21)c1ccc(C(C)C)cc1)=NCC3` [compound 29], the IC50 in assay [1] was determined as 46.9 µM; in [2] it was 11.4 µM; in [3] it was 4.4 µM; in [4], 13.6 µM; in assay [5], 7.71 µM; in assay [6] it was 9.63 µM. Besides, the IC50 in assay [7] is 13.9 µM; in assay [8], 13.9 µM; in assay [9], 12.1 µM; in [11] it was 40 µM; in [12] it was 11.4 µM; in assay [13] it was 8.07 µM. The IC50 in assay [14] was determined as 42.5 µM; in assay [15], 2.09 µM; in assay [16], 5.89 µM; in assay [17] it was 11.5 µM; in [18], 16.6 µM; in assay [19], 11.5 µM. The IC50 came to 10.8 µM in [20], 11.3 µM in [21] and 4.44 µM in [23].

As a reminder, the IC50 is the concentration that gives 50% inhibition.
